Values after ≈ are worked out from the molar mass of the structure shown. Read-outs that look alike come from different tables or passages of the source.
Tests used:
[1] = system: B. subtilis
Protocol: (§1) Determining the MIC value is a standard technique well known to the skilled person, in particular the MIC value can be measured using method M07-A9 (CLSI standard, January 2012, Vol. 32, No. 2, “Methods for Dilution Antimicrobial Susceptibility Tests for Bacteria That Grow Aerobically”).
(§2) Different microorganisms (from glycerol stock) were plated out on blood agar and incubated at 37° C. for 24 hours. A colony was selected and 2×5 mL of TSB was inoculated. The samples and a sterile control were cultured for 16-20 hours at 37° C. Comparative compound B is nisin acting as a control. […] Comparative compounds A, D and E are also control compounds not part of the present invention.
(§3) The overnight cultures were diluted to 0.5×10^6 CFU in TSB. 50 μL of the bacterial solution was added to each well and the plates were sealed with an adhesive membrane and incubated at 37° C. for 16 hours. The next day, the plates were visually inspected for bacterial growth.

[2] = system: E. coli
Protocol: as §1, §2, §3

[3] = system: S. aureus
Protocol: as §1, §2, §3

[4] = system: M. luteus; format: cell-based
Protocol: as §1
(§4) Different microorganisms (from glycerol stock) were plated out on blood agar and incubated at 37° C. for 24 hours. A colony was selected and 2×5 mL of TSB was inoculated. The samples and a sterile control were cultured for 16-20 hours at 37° C. Comparative compound B is nisin acting as a control. Comparative compound C is vancomycin, also acting as a control. Comparative compounds A, D and E are also control compounds not part of the present invention.
as §3

[5] = system: VRE 155; format: cell-based; details: duplicate experiments
Protocol: as §1, §4, §3

[6] = system: MRSA USA300; format: cell-based, Staphylococcus aureus; details: duplicate experiments
Protocol: as §1, §4, §3

[7] = system: MRSA WKZ2; format: cell-based, Staphylococcus aureus; details: duplicate experiments
Protocol: as §1, §4, §3

[8] = Serum stability; format: in vitro ADME; details: human serum, 37° C., after 24 hours; read-out: stability in human serum, remained intact
Protocol: 2 mg/mL peptide solutions were prepared in 26% DMSO in MilliQ. Duplicate samples were prepared with […] peptide solution and […] human serum, making the final DMSO concentration 2%. The samples were incubated at 37° C., and samples were taken at t=0, 1, 2, 4 and 24 hours as follows: to 100 μL serum solution, 200 μL MeOH (containing 0.075 mg/mL ethylparaben as an internal standard) was added to precipitate the proteins. The sample was vortexed briefly and allowed to stand for 10 min at RT. The samples were then centrifuged at 13,000 rpm for 5 min, and the supernatant was taken and stored at −20° C. until analysis. Each sample was analyzed by HPLC on a C4 column. The peaks were integrated and normalized to the internal standard.

MIC values B. subtilis [1] [µg/mL]	MIC values E. coli [2] [µg/mL]	MIC values S. aureus [3] [µg/mL]	MIC values M. luteus [4] [µg/mL]	Structure (SMILES)	MIC values B. subtilis ([1]; duplicate experiments) [µg/mL]	MIC values E. coli ([2]; duplicate experiments) [µg/mL]	MIC values S. aureus ([3]; duplicate experiments) [µg/mL]	MIC values M. luteus ([4]; duplicate experiments) [µg/mL]	MIC values VRE 155 [5] [µg/mL]	MIC values MRSA USA300 [6] [µg/mL]	MIC values MRSA WKZ2 [7] [µg/mL]	remaining at 24 h, 0.15 mg/mL [8] [%]
				C=C1NC(=O)[C@H]([C@@H](C)CC)NC(=O)[C@H](NC(=O)C(=CC)NC(=O)[C@@H](N)[C@@H](C)CC)CSC[C@@H](C(=O)N[C@H]2C(=O)N3CCC[C@H]3C(=O)NCC(=O)N[C@H](C(=O)N[C@@H](CCCCN)C(=O)NCCCCCCCCCC)CS[C@H]2C)NC(=O)[C@H](CC(C)C)NC1=O [(6)]	4 to 8	64 (≈ 49.6 µM)	16 (≈ 12.4 µM)	2 (≈ 1.55 µM)	8 (≈ 6.2 µM)	16 (≈ 12.4 µM)	16 (≈ 12.4 µM)	94
				C=C1NC(=O)[C@H]([C@@H](C)CC)NC(=O)[C@H](NC(=O)C(=CC)NC(=O)[C@@H](N)[C@@H](C)CC)CSC[C@@H](C(=O)N[C@H]2C(=O)N3CCC[C@H]3C(=O)NCC(=O)N[C@H](C(=O)N[C@@H](CCCCN)C(=O)NCCCCCC)CS[C@H]2C)NC(=O)[C@H](CC(C)C)NC1=O [(2)]	32 (≈ 25.9 µM)	>64	>64	2 (≈ 1.62 µM)				
32 (≈ 20.9 µM)	>64	64 (≈ 41.7 µM)	2 to 4	C=C1NC(=O)[C@H]([C@@H](C)CC)NC(=O)[C@H](NC(=O)C(=CC)NC(=O)[C@@H](N)[C@@H](C)CC)CSC[C@@H](C(=O)N[C@H]2C(=O)N3CCC[C@H]3C(=O)NCC(=O)N[C@H](C(=O)N[C@@H](CCCCN)C(=O)NCCCn3cc(CCC(=O)NC/C=C(\C)CC/C=C(\C)CCC=C(C)C)nn3)CS[C@H]2C)NC(=O)[C@H](CC(C)C)NC1=O [Compound (24) with R1-group (d)]								
				C=C1NC(=O)[C@H]([C@@H](C)CC)NC(=O)[C@H](NC(=O)C(=CC)NC(=O)[C@@H](N)[C@@H](C)CC)CSC[C@@H](C(=O)N[C@H]2C(=O)N3CCC[C@H]3C(=O)NCC(=O)N[C@H](C(=O)N[C@@H](CCCCN)C(=O)NC/C=C(\C)CC/C=C(\C)CCC=C(C)C)CS[C@H]2C)NC(=O)[C@H](CC(C)C)NC1=O [(12)]	4 (≈ 2.95 µM)	>64	8 (≈ 5.91 µM)	2 (≈ 1.48 µM)	8 (≈ 5.91 µM)	16 (≈ 11.8 µM)	16 (≈ 11.8 µM)	> 50

Reference: US20170362283A1, “NISIN-BASED COMPOUNDS AND USE THEREOF IN THE TREATMENT OF BACTERIAL INFECTIONS” (UNIVERSITEIT UTRECHT HOLDING B.V., priority 2015, published 2017)
